What all share (format): cell-based
Data set [1] has as its system HIV-1 A17 (K103N and Y181C). Description: microbe, parasite or virus in culture. As to conditions: Human immunodeficiency virus 1, MT2, read-out: EC50 A17.
The test system of the next data set is HIV-1 IIIB. Briefly: HIV-1 infection assay using MT-2 cells. The conditions noted are these: Human immunodeficiency virus 1, IIIB, MT2, read-out: EC50 IIIB.
Another data set deals with MT-2 cells.
The next data set concerns HIV-1 NL4-3. Description: Inhibition of HIV-1 infection of TZM-bl cells. The conditions noted are these: wild-type NL4-3.

Consider `COCc1cc(N)c(Nc2ccc(C#N)cc2)cc1Oc1c(C)cc(CCC#N)cc1C` [Compound 6k, 5-[4″-(2-Cyanoethyl)-2″,6″-dimethylphenoxy]-N^1-(4′-cyanophenyl)-4-methoxymethylbenzene-1,2-diamine], for which the EC50 worked out at 2.95 ± 0.5 nM in data set [1] and 3.25 ± 0.23 nM with HIV-1 IIIB. The “SI (selective index) CC50/EC50(IIIB)” value with MT-2 cells is listed as >61,538.
As to `CNC(=O)c1cc(N)c(Nc2ccc(C#N)cc2)cc1Oc1c(OC)cc(CCC#N)cc1OC` [Compound 13d, 5-[4″-(2-Cyanoethyl)-2″,6″-dimethoxyphenoxy]-N^1-(4′-cyanophenyl)-4-methylcarbamoylbenzene-1,2-diamine], the “fold less potent than the corresponding bromo/methoxy-DAANs (14c and 14d)” value in the data set with HIV-1 NL4-3 was “at least 20 fold”.
For the molecule `COC(=O)c1cc(N)c(Nc2ccc(C#N)cc2)cc1Oc1c(OC)cc(CCC#N)cc1OC` [Compound 13c, 5-[4″-(2-Cyanoethyl)-2″,6″-dimethoxyphenoxy]-N^1-(4′-cyanophenyl)-4-methoxycarbonylbenzene-1,2-diamine], the “fold less potent than the corresponding bromo/methoxy-DAANs (14c and 14d)” value with HIV-1 NL4-3 was “at least 20 fold”.
On to `CC(=O)OCc1cc(N)c(Nc2ccc(C#N)cc2)cc1Oc1c(C)cc(CCC#N)cc1C` [Compound 6h, 4-Acetoxymethyl-5-[4″-(2-cyanoethyl)-2″,6″-dimethylphenoxy]-N^1-(4′-cyanophenyl)benzene-1,2-diamine], for which the figures for the half-maximal effective concentration (EC50) (in data set [1]; in the data set on HIV-1 IIIB) were 4.92 ± 0.12 nM and 0.96 ± 0.12 nM, respectively. In the data set on MT-2 cells, the “SI (selective index) CC50/EC50(IIIB)” value is 46,667.
